How the values were obtained:
Igf1r = Igf1r mRNA expression (QRT-PCR) in AML-12 cells; format: cell-based, mouse; details: insulin alone, 6 hours, without 8-CPT/Dex
Method: For RNA analysis of insulin receptor (Insr), insulin like growth factor receptor (Igf1r), and Glucose-6-Phosphatase (G6pc), AML-12 cells were amplified in ITS, Dex and FBS-containing DMEM/F12 media, and cultured on 24-well (6.7×10^4 cells/well) plates in 10% FBS ITS-free DMEM/F12 media with or without Dex overnight. These cells were treated with control (water) or various compounds (diluted in 10% FBS ITS-free DMEM/F12 media with or without Dex) for 6 hours, 24 hours, or 48 hours.
In some experiments, the AML-12 cells were washed twice with PBS after the compound treatments for 24 hours, and then incubated with selenium compounds (150 or 300 ppb of each compound) in the presence or absence of insulin (10 or 100 nM), 0.1 mM 8-CPT (Sigma), or 0.5 μM Dex in serum-free, glucose/phenol red-free DMEM media supplemented with 20 mM lactose and 2 mM pyruvate, and 15 mM HEPES (glucose-production media) for another 6 hours. After treatments, cell media were collected and subjected to glucose assays using Abcam glucose assay kit according to the manufacturer's protocol. […]
Total RNA from these cells was isolated using Trizol (Invitrogen) according to the manufacturer's protocol, and then incubated with DNase I to remove any potential contaminated genomic DNA. […] Three to six samples were analyzed in each treatment group. […]

Foxo3 = experiment: Western blot of pFoxo3T32 in primary mouse hepatocytes; format: cell-based; details: 100 nM insulin 6 hours, or Compounds CDE both doses 24 hours + 6 hours
Method: (§1) The overnight-acclimated hepatocytes were washed twice with PBS (to remove any residual FBS and other additives in the TRL hepatocyte maintenance medium, pretreated with control (water) or selenium Compounds CDE (150 or 300 ppb of each selenium compound) in DMEM/F12 media supplemented with 10% fetal bovine serum (FBS) for 24 hr. These cells were then washed twice with PBS and incubated with the same dose of selenium Compounds CDE (150 or 300 ppb) in the presence or absence of insulin (10 or 100 nM, Sigma), 0.1 mM 8-CPT (Sigma) or 0.5 μM Dex (Sigma) in serum-free and glucose-free DMEM media (Invitrogen) supplemented with 20 mM lactose (Sigma) and 2 mM pyruvate (Sigma) and 15 mM HEPES (Sigma) for another 6 hours. […]
(§2) After the above described treatments, primary mouse hepatocytes were rinsed with ice-cold PBS and lysed in the ice-cold RIPA buffer containing complete proteinase and phosphatase inhibitors (Thermo-Fisher Scientific, Waltham, Mass.) on ice for 30 min Cell lysates were collected using a cell scraper and transfer pipette and then centrifuged at 12000×g for 30 min at 4° C. to remove the DNA pellet and obtain the protein extract. Protein levels in the supernatant of these cell lysates were determined using the Pierce Micro-BCA protein assay kit (Thermo Scientific-Piece Biotechnology, Rockford, Ill.) according to the manufacturer's protocol. […]

Foxo4 = experiment: Western blot of pFoxo4T28 in primary mouse hepatocytes; format: cell-based; details: 100 nM insulin, 6 hours
Method: as §1, §2

Foxo1 = experiment: Western blot of pFoxo1T24 in primary mouse hepatocytes; format: cell-based; details: 100 nM insulin 6 hours, or Compounds CDE both doses 24 hours + 6 hours
Method: as §1, §2

Substance: insulin: insulin (10 or 100 nM, Sigma) used as comparator and cotreatment
- Igf1r expression (Igf1r): did not increase
- pFoxo3T32 protein level (in words) (Foxo3): significant increase
- pFoxo4T28 levels (Foxo4): barely detectable
- pFoxo1T24 protein level (in words) (Foxo1): significant increase
